Experimental data as given in US12275733B2, “Substituted pyrido[3,4-b]indoles for the treatment of cartilage disorders” (Sanofi, priority 2016, dated 2025).
One block for each compound: values may come before it.

Tested on: ATDC5 cells
Experiment: Chondrogenesis activity assay in ATDC5 cells (collagen type II induction, immunofluorescence)
Type: cell-based, mouse
Conditions: Mus musculus; for EC50: collagen type II induction in ATDC5 cells, concentration reaching 50% of maximum induction; for Emax: maximum percent induction of collagen type II relative to internal reference compound at 10 μM, ATDC5 cells
Procedure, shortened: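 Collagen type II was stained in fixed, permeabilized cells with an Alexa Fluor 488 secondary and measured by high-content fluorescence imaging. ATDC5 cells had 4 days at 37 °C in insulin-supplemented differentiation medium with compound, typically 40 nM–10 μM, 0.1% DMSO. DMSO wells and a 10 μM internal reference compound were used for normalization.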

- EC50: 330 nM
SMILES: Cc1nccc2c1[nH]c1c(-c3ccc4[nH]ncc4c3)cc(Cl)cc12 [Example 232, 6-Chloro-8-(1H-indazol-5-yl)-1-methyl-9H-pyrido[3,4-b]indole]
- Emax: > 80%

- EC50: 100 nM
SMILES: COc1ccc(-c2cc(Cl)cc3c2[nH]c2c(C)nccc23)cc1N [Example 186, 5-(6-Chloro-1-methyl-9H-pyrido[3,4-b]indol-8-yl)-2-methoxy-phenylamine]
- Emax: > 80%

- EC50: > 10000 nM
SMILES: Cc1nccc2c1[nH]c1c(-c3ccc(OCc4ccccc4)cc3)cc(Cl)cc12 [Example 177, 8-(4-Benzyloxy-phenyl)-6-chloro-1-methyl-9H-pyrido[3,4-b]indole]
- Emax: 20 to 50%

- EC50: 7300 nM
SMILES: FC(F)(F)Cn1c2cnccc2c2cc(Cl)cc(-c3cnc(C4CC4)s3)c21 [Example 174, 6-Chloro-8-(2-cyclopropyl-thiazol-5-yl)-9-(2,2,2-trifluoro-ethyl)-9H-pyrido[3,4-b]indole]
- Emax: 50 to 80%

- EC50: > 3300 nM
SMILES: Cc1nccc2c1[nH]c1c(-c3cccc(CN4CCOCC4)c3)cc(Cl)cc12 [Example 255, 6-Chloro-1-methyl-8-(3-morpholin-4-ylmethyl-phenyl)-9H-pyrido[3,4-b]indole]
- Emax: < 20%

- EC50: 330 nM
SMILES: COc1ccc(-c2cc(Cl)cc3c2[nH]c2c(C)nccc23)cc1O [Example 180, 5-(6-Chloro-1-methyl-9H-pyrido[3,4-b]indol-8-yl)-2-methoxy-phenol]
- Emax: > 80%

- EC50: 800 nM
SMILES: Cc1nccc2c1[nH]c1c(-c3ccc4c(c3)OC(C)C4)cc(Cl)cc12 (stereo not shown) [Example 196, 6-Chloro-1-methyl-8-(2-methyl-2,3-dihydro-benzofuran-6-yl)-9H-pyrido[3,4-b]indole]
- Emax: 50 to 80%

- EC50: > 3300 nM
SMILES: CCc1nc(C)cc2c3cc(Br)cc(-c4cnn(C)c4)c3n(CC)c12 [Example 210, 6-Bromo-1,9-diethyl-3-methyl-8-(1-methyl-1H-pyrazol-4-yl)-9H-pyrido[3,4-b]indole]
- Emax: < 20%

- EC50: > 10000 nM
SMILES: COc1cc(OC)c(-c2cc(Cl)cc3c2[nH]c2c(C)nccc23)c(OC)c1 [Example 175, 6-Chloro-1-methyl-8-(2,4,6-trimethoxy-phenyl)-9H-pyrido[3,4-b]indole]
- Emax: < 20%

- EC50: 190 nM
SMILES: Cc1nccc2c1[nH]c1c(-c3ccc(OCc4cccc(F)n4)cc3)cc(Cl)cc12 [Example 226, 6-Chloro-8-[4-(6-fluoro-pyridin-2-ylmethoxy)-phenyl]-1-methyl-9H-pyrido[3,4-b]indole]
- Emax: 50 to 80%

- EC50: 110 nM
SMILES: Cc1nccc2c1[nH]c1c(-c3ccc(OCc4ncccn4)cc3)cc(Cl)cc12 [Example 266, 6-Chloro-1-methyl-8-[4-(pyrimidin-2-ylmethoxy)-phenyl]-9H-pyrido[3,4-b]indole]
- Emax: > 80%

- EC50: > 3300 nM
SMILES: Cc1nccc2c1[nH]c1c(-c3cccc(OCc4ccc(C(F)(F)F)o4)c3)cc(Cl)cc12 [Example 277, 6-Chloro-1-methyl-8-[3-(5-trifluoromethyl-furan-2-ylmethoxy)-phenyl]-9H-pyrido[3,4-b]indole]
- Emax: < 20%

- EC50: > 3300 nM
SMILES: CCn1c2c(-c3ccnc(N4CCN(C)CC4)c3)cc(Cl)cc2c2ccnc(C)c21 [Example 219, 6-Chloro-9-ethyl-1-methyl-8-[2-(4-methyl-piperazin-1-yl)-pyridin-4-yl]-9H-pyrido[3,4-b]indole]
- Emax: < 20%

- EC50: 170 nM
SMILES: Cc1nccc2c1[nH]c1c(-c3cccc(OCc4nccs4)c3)cc(Cl)cc12 [Example 273, 6-Chloro-1-methyl-8-[3-(thiazol-2-ylmethoxy)-phenyl]-9H-pyrido[3,4-b]indole]
- Emax: < 20%

Further lines, the compound ahead of its results:

SMILES: CCn1c2c(-c3ccc(Cl)nc3Cl)cc(Cl)cc2c2ccnc(C)c21 [Example 59, 6-Chloro-8-(2,6-dichloro-pyridin-3-yl)-9-ethyl-1-methyl-9H-pyrido[3,4-b]indole]
- EC50: 1300 nM
- Emax: > 80%

SMILES: COc1ccc(-c2cc(Cl)cc3c2[nH]c2cnccc23)cn1 [Example 72, 6-Chloro-8-(6-methoxy-pyridin-3-yl)-9H-pyrido[3,4-b]indole]
- EC50: 5800 nM
- Emax: 20 to 50%

SMILES: CCn1c2cnccc2c2cc(Cl)cc(-c3ccc(Cl)cc3)c21 [Example 131, 6-Chloro-8-(4-chloro-phenyl)-9-ethyl-9H-pyrido[3,4-b]indole]
- EC50: 780 nM
- Emax: > 80%

SMILES: CCn1c2c(-c3cccnc3Cl)cc(Cl)cc2c2ccnc(C)c21 [Example 58, 6-Chloro-8-(2-chloro-pyridin-3-yl)-9-ethyl-1-methyl-9H-pyrido[3,4-b]indole]
- EC50: 1500 nM
- Emax: 20 to 50%

SMILES: CCn1c2c(-c3ccc(OCCN4CCOCC4)cc3)cc(Cl)cc2c2ccnc(C)c21 [Example 28, 6-Chloro-9-ethyl-1-methyl-8-[4-(2-morpholin-4-yl-ethoxy)-phenyl]-9H-pyrido[3,4-b]indole]
- EC50: 190 nM
- Emax: > 80%

SMILES: FC(F)(F)Cn1c2cnccc2c2cc(Cl)cc(-c3cnn4ccccc34)c21 [Example 139, 6-Chloro-8-pyrazolo[1,5-a]pyridin-3-yl-9-(2,2,2-trifluoro-ethyl)-9H-pyrido[3,4-b]indole]
- EC50: > 10000 nM
- Emax: < 20%

SMILES: FC(F)(F)Cn1c2cnccc2c2cc(Cl)cc(-c3ccc(N4CCCC4)nc3)c21 [Example 81, 6-Chloro-8-(6-pyrrolidin-1-yl-pyridin-3-yl)-9-(2,2,2-trifluoro-ethyl)-9H-pyrido[3,4-b]indole]
- EC50: 4100 nM
- Emax: > 80%

SMILES: CCn1c2c(-c3ccnn3Cc3cccnc3C)cc(Cl)cc2c2ccnc(C)c21 [Example 7, 6-Chloro-9-ethyl-1-methyl-8-[2-(2-methyl-pyridin-3-ylmethyl)-2H-pyrazol-3-yl]-9H-pyrido[3,4-b]indole]
- EC50: > 3300 nM
- Emax: < 20%

SMILES: FC(F)(F)Cn1c2cnccc2c2cc(Cl)cc(-c3cn[nH]c3)c21 [Example 144, 6-Chloro-8-(1H-pyrazol-4-yl)-9-(2,2,2-trifluoro-ethyl)-9H-pyrido[3,4-b]indole]
- EC50: 580 nM
- Emax: < 20%

SMILES: CN1CCN(c2ccc(-c3cc(Cl)cc4c5ccncc5n(CC(F)(F)F)c34)cn2)CC1 [Example 87, 6-Chloro-8-[6-(4-methyl-piperazin-1-yl)-pyridin-3-yl]-9-(2,2,2-trifluoro-ethyl)-9H-pyrido[3,4-b]indole]
- EC50: 1500 nM
- Emax: 50 to 80%

SMILES: N#Cc1ccc(-c2cc(Cl)cc3c4ccncc4n(CC(F)(F)F)c23)cn1 [Example 60, 5-[6-Chloro-9-(2,2,2-trifluoro-ethyl)-9H-pyrido[3,4-b]indol-8-yl]-pyridine-2-carbonitrile]
- EC50: 2500 nM
- Emax: 20 to 50%

SMILES: CCn1c2c(-c3ccc(OC)nc3)cc(Cl)cc2c2ccnc(C)c21 [Example 91, 6-Chloro-9-ethyl-8-(6-methoxy-pyridin-3-yl)-1-methyl-9H-pyrido[3,4-b]indole]
- EC50: 1500 nM
- Emax: > 80%

SMILES: CCn1c2cnccc2c2cc(Cl)cc(-c3cncnc3)c21 [Example 133, 6-Chloro-9-ethyl-8-pyrimidin-5-yl-9H-pyrido[3,4-b]indole]
- EC50: > 10000 nM
- Emax: 20 to 50%

SMILES: CCn1c2c(-c3cnn(CCO)c3)cc(Cl)cc2c2ccnc(C)c21 [Example 44, 2-[4-(6-Chloro-9-ethyl-1-methyl-9H-pyrido[3,4-b]indol-8-yl)-pyrazol-1-yl]-ethanol]
- EC50: 670 nM
- Emax: > 80%

SMILES: COC(=O)c1cc2c([nH]c3c(-c4ccc(OC)cc4)cc(Cl)cc32)c(C)n1 [Example 152, 6-Chloro-8-(4-methoxy-phenyl)-1-methyl-9H-pyrido[3,4-b]indole-3-carboxylic acid methyl ester]
- EC50: 360 nM
- Emax: < 20%

SMILES: Cc1nccc2c1[nH]c1c(-c3ccc(OCc4ncc5ccccc5n4)cc3)cc(Cl)cc12 [Example 41, 6-Chloro-1-methyl-8-[4-(quinazolin-2-ylmethoxy)-phenyl]-9H-pyrido[3,4-b]indole]
- EC50: 240 nM
- Emax: 50 to 80%

SMILES: Nc1ccc(-c2cc(Cl)cc3c4ccncc4n(CC4CC4)c23)c(Cl)n1 [Example 53, 6-Chloro-5-(6-chloro-9-cyclopropylmethyl-9H-pyrido[3,4-b]indol-8-yl)-pyridin-2-ylamine]
- EC50: 2100 nM
- Emax: 50 to 80%

SMILES: CNc1ncc(-c2cc(Cl)cc3c2[nH]c2c(C)nccc23)cn1 [Example 157, [5-(6-Chloro-1-methyl-9H-pyrido[3,4-b]indol-8-yl)-pyrimidin-2-yl]-methyl-amine]
- EC50: > 10000 nM
- Emax: 20 to 50%

SMILES: Cn1ccc(-c2cc(Cl)cc3c4ccncc4n(CC(F)(F)F)c23)c1 [Example 165, 6-Chloro-8-(1-methyl-1H-pyrrol-3-yl)-9-(2,2,2-trifluoro-ethyl)-9H-pyrido[3,4-b]indole]
- EC50: > 10000 nM
- Emax: < 20%

SMILES: COc1ccc(-c2cc(C(N)=O)cc3c2[nH]c2c(C)nccc23)cc1 [Example 36, 8-(4-Methoxy-phenyl)-1-methyl-9H-pyrido[3,4-b]indole-6-carboxamide]
- EC50: 100 nM
- Emax: > 80%

SMILES: Cc1cc(-c2ccc(Cl)nc2Cl)c2[nH]c3c(C)nccc3c2c1 [Example 108, 8-(2,6-Dichloro-pyridin-3-yl)-1,6-dimethyl-9H-pyrido[3,4-b]indole]
- EC50: 1400 nM
- Emax: > 80%

SMILES: COc1ccc(-c2cc(Cl)cc3c2[nH]c2c(C(F)(F)F)nccc23)cc1 [Example 155, 6-Chloro-8-(4-methoxy-phenyl)-1-trifluoromethyl-9H-pyrido[3,4-b]indole]
- EC50: > 3300 nM
- Emax: < 20%

SMILES: CC(C)(C)OC(=O)n1cc(-c2cc(Cl)cc3c4ccncc4n(CC(F)(F)F)c23)cn1 [Example 12, tert-Butyl 4-(6-chloro-9-(2,2,2-trifluoroethyl)-9H-pyrido[3,4-b]indol-8-yl)-1H-pyrazole-1-carboxylate]
- EC50: > 10000 nM
- Emax: 20 to 50%

SMILES: Clc1cc(-c2ccc(Cl)nc2)c2[nH]c3cnccc3c2c1 [Example 73, 6-Chloro-8-(6-chloro-pyridin-3-yl)-9H-pyrido[3,4-b]indole]
- EC50: 440 nM
- Emax: 20 to 50%
